Laboratory results reported in patent publication US20070191414A1, “Novel isoamido-substituted hydroxy-6-phenylphenanthridines” (Altana Pharma AG, priority 2004, published 2007).

Target: T1, PDE4B2 (Homo sapiens, UniProt Q07343)
T1 construct: made in house; host or cells: SF21 insect cells (baculovirus; virus prepared in SF9 cells)
Experiment: Inhibition of PDE4B2 activity, modified [3H]cAMP SPA (scintillation proximity assay)
Assay type: biochemical
Details: recombinant PDE4B2 expressed in SF21 insect cells; 0.5 μM cAMP; 15 min at 37° C.; read-out: Inhibition of the PDE4 activity, −log IC50(mol/l) (converted)
Description: The PDE4B2 (GB no. M97515) was a gift of Prof. M. Conti (Stanford University, USA). It was amplified from the original plasmid (pCMV5) via PCR with primers. Rb9 (5′- […] -3′) and Rb 10 (5′- […] -3′) and cloned into the pCR-Bac vector (Invitrogen, Groningen, NL).
The recombinant baculovirus was prepared by means of homologous recombination in SF9 insect cells. The expression plasmid was cotransfected with Bac-N-Blue (Invitrogen, Groningen, NL) or Baculo-Gold DNA (Pharmingen, Hamburg) using a standard protocol (Pharmingen, Hamburg). Wt virus-free recombinant virus supernatant was selected using plaque assay methods. After that, high-titre virus supernatant was prepared by amplifying 3 times. PDE was expressed in SF21 cells by infecting 2×10^6 cells/ml with an MOI (multiplicity of infection) between 1 and 10 in serum-free SF900 medium (Life Technologies, Paisley, UK). […]
The SF21 insect cells were resuspended, at a concentration of approx. 10^7 cells/ml, in ice-cold (4° C.) homogenization buffer (20 mM Tris, pH 8.2, containing the following additions: 140 mM NaCl, 3.8 mM KCl, 1 mM EGTA, 1 mM MgCl2, 10 mM β-mercaptoethanol, 2 mM benzamidine, 0.4 mM Pefablock, 10 μM leupeptin, 10 μM pepstatin A, 5 μM trypsin inhibitor) and disrupted by ultrasonication. […] The protein content was determined by the Bradford method (BioRad, Munich) using BSA as the standard. […]

T1 sequence (Q07343 1-564 isoform Q07343-2): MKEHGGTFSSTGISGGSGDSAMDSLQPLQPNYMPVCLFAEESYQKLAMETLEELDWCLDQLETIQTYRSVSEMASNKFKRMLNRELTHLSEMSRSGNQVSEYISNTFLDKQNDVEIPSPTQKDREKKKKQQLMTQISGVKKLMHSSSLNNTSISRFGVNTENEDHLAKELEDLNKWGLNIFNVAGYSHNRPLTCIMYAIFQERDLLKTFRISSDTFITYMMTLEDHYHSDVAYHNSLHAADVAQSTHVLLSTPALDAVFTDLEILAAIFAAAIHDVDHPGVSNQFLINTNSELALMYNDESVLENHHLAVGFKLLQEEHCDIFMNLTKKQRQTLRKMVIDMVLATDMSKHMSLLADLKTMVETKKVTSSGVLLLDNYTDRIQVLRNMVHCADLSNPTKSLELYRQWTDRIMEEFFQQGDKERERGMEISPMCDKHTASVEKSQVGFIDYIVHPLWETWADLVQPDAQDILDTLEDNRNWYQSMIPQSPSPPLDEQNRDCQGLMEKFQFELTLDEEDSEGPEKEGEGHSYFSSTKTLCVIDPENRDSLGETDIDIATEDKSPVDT

IC50: 1.48 nM
Compound: CCOc1cc2c(cc1OC)C(c1cccc(NC(=O)CCNC(N)=O)c1)=N[C@@H]1CC[C@@H](O)C[C@H]21 (racemic) [Compound 19, N-[3-((2RS,4aRS,10bRS)-9-Ethoxy-2-hydroxy-8-methoxy-1,2,3,4,4a,10b-hexahydro-phenanthridin-6-yl)-phenyl]-3-ureido-propionamide]
